CC(C)c1ccc2sc3ccccc3c(=O)c2c1
Conditions | solubility (mole fraction)
in 1,2-dichloroethane, 306.25 K | 0.392
in 1,2-dichloroethane, 309.15 K | 0.424
in 1,2-dichloroethane, 311.25 K | 0.455
in 1,2-dichloroethane, 315.15 K | 0.486
in 1,2-dichloroethane, 318.15 K | 0.516
in 1,2-dichloroethane, 321.15 K | 0.546
in 1,2-dichloroethane, 324.65 K | 0.572
in 1,2-dichloroethane, 326.85 K | 0.615
in 1,4-dioxane, 307.15 K | 0.34
in 1,4-dioxane, 310.15 K | 0.381
in 1,4-dioxane, 314.05 K | 0.429
in 1,4-dioxane, 317.15 K | 0.475
in 1,4-dioxane, 320.05 K | 0.512
in 1,4-dioxane, 323.15 K | 0.543
in 1,4-dioxane, 326.65 K | 0.589
in 1,4-dioxane, 329.85 K | 0.637
in acetone, 299.15 K | 0.126
in acetone, 303.15 K | 0.167
in acetone, 307.15 K | 0.219
in acetone, 310.15 K | 0.266
in acetone, 314.25 K | 0.319
in acetone, 317.15 K | 0.358
in acetone, 320.15 K | 0.383
in acetone, 323.15 K | 0.417
in ethanol, 305.65 K | 0.0424
in ethanol, 307.95 K | 0.0493
in ethanol, 309.65 K | 0.0557
in ethanol, 312.15 K | 0.0703
in ethanol, 315.15 K | 0.1
in ethanol, 318.15 K | 0.154
in ethanol, 321.15 K | 0.26
in ethyl acetate, 305.25 K | 0.192
in ethyl acetate, 308.15 K | 0.24
in ethyl acetate, 311.65 K | 0.283
in ethyl acetate, 314.15 K | 0.325
in ethyl acetate, 317.05 K | 0.355
in ethyl acetate, 320.15 K | 0.409
in ethyl acetate, 323.65 K | 0.461
in ethyl acetate, 327.15 K | 0.511
in methanol, 299.15 K | 0.00556
in methanol, 302.15 K | 0.00643
in methanol, 305.15 K | 0.00761
in methanol, 308.15 K | 0.00911
in methanol, 311.15 K | 0.0113
in methanol, 314.15 K | 0.0145
in methanol, 317.15 K | 0.0196
in methanol, 320.15 K | 0.0264
in toluene, 304.65 K | 0.332
in toluene, 308.15 K | 0.374
in toluene, 311.65 K | 0.412
in toluene, 315.15 K | 0.453
in toluene, 318.15 K | 0.489
in toluene, 321.05 K | 0.526

— BigSolDB 2.1
